Values quoted from earlier work as cited in patent US20250114374A1, “BCL-2 INHIBITORS” (Newave Pharmaceutical Inc., priority 2021, published 2025).

What was measured:
[1] = system: cells from lymphoma and small-cell lung carcinoma lines, primary patient-derived cells; details: single agent; cited from earlier work
[2] = cited from earlier work

CN(C)CC[C@H](CSc1ccccc1)Nc1ccc(S(=O)(=O)NC(=O)c2ccc(N3CCN(Cc4ccccc4-c4ccc(Cl)cc4)CC3)cc2)cc1[N+](=O)[O-] [ABT-737]
cell killing [1]: single-agent-mechanism-based killing | aqueous solubility [2]: low
